In patent publication EP0409176B1, “Method and materials for detecting pathology from alterations in estrogen metabolism” (THE ROCKEFELLER UNIVERSITY, priority 1989, dated 1991):

Assays:
2OHE1 antiserum = assay: Radioimmunoassay cross-reactivity of the anti-2OHE1 antiserum; type: binding; settings: antiserum raised against bovine serum albumin linked to 2-hydroxyestrone 17-carboxymethyloxime
Text: Antibodies to 16α-OHE1, E2 and E3 were raised as described previously (Fishman, J., et al., SCIENCE, 204:1089-1091 (1979); Ikegawa, S., et al., J. STEROID BIOCHEM., 18:329-332 (1983)), while the anti-2OHE1 antiserum was a gift of Dr. Kanbegawa (Teikyo University, Japan) and was raised against bovine serum albumin linked to 2-hydroxyestrone 17-carboxymethyloxime. Cross-reactivities of the 2OHE1 antiserum with E1, E2 and E3, 16αOHE1, 2MeOE1, and 2-hydroxyestradiol (2OHE2) were 1.3%, 0.6%, 0.01%, 0.03%, 0.11% and 1.7%, respectively.
Each urine sample (1 or 2 mL) contained approximately 3000 dpm of […] steroid used to determine recovery, and was applied to a C18 Sep-pak cartridge followed by elution with 5 mL of methanol. The eluate was dried in vacuo and hydrolyzed with Glusulase for 12 h at 37°C. The hydrolyzed steroids were again extracted on a C18 Sep-pak cartridge and eluted with 5 mL of methanol. Aliquots of this final eluate were taken for determination of recovery (averaging 90-95%) and duplicate radioimmunoassay (100 µL). In order to prevent auto-oxidation of catecholestrogens, ascorbic acid (1%) was used in all stages of the assay. Radiolabeled steroids and antisera were incubated with the specimens overnight at 4°C, and radioactivity was measured with a Packard model 3000 scintillation counter. Estrogen levels are expressed relative to urinary creatinine concentration. Statistical analysis was performed with an unpaired t-test. Unless otherwise specified, all values are reported as means ± SEM.

[1] = system: cytochrome P-450-dependent metabolism of estradiol; settings: 800 mg per dose twice daily oral for two weeks; nine normal male volunteers; P<0.04; cited from earlier work
[2] = system: cytochrome P-450-dependent metabolism of estradiol; settings: cited from earlier work
[3] = system: 16α-hydroxylation of estradiol; settings: 800 mg per dose twice daily oral for two weeks; nine normal male volunteers; radiometric analysis; cited from earlier work
[4] = system: estradiol hydroxylation at both the C-2 and C-16α sites; settings: cited from earlier work
[5] = system: estradiol 2-hydroxylation; assay: Urinary estrogen metabolites and ratios before and after I3C or high fiber diet; type: in vivo, humans
Experimental: (§1) In this study by two of the inventors herein, which study was just recently published, certain dietary indoles were examined for their induction of hepatic estradiol 2-hydroxylation. In particular, indole-3-carbinol (I3C) was administered to humans at a rate of 500 mg daily for one week.
In conjunction with this study, certain comparative data were developed between the administration of I3C to women and men, and the administration of a high fiber diet to women. The comparative results are presented in Table 6A, B and C below, wherein Table 6A represents the data from women taking I3C, Table 6B represents the data respecting the women who were placed on a high fiber diet, and Table 6C represents the data gathered from the sample of men who were administered I3C.

[6] = system: hepatic estradiol 2-hydroxylation; assay: Extent of estradiol 2-hydroxylation after indole-3-carbinol administration; type: in vivo; settings: 500 mg daily for one week, humans
Experimental: as §1

[7] = after thyroxine administration versus baseline

C[C@]12CC[C@@H]3c4ccc(O)cc4CC[C@H]3[C@@H]1C[C@@H](O)C2=O [16αOHE1, 16α-hydroxyestrone]
Cross-reactivities of the 2OHE1 antiserum (2OHE1 antiserum): 0.03%

C[C@]12CC[C@@H]3c4cc(O)c(O)cc4CC[C@H]3[C@@H]1CC[C@@H]2O [2-hydroxyestradiol]
Cross-reactivities of the 2OHE1 antiserum (2OHE1 antiserum): 1.7%

CN/C(=N/CCSCc1nc[nH]c1C)NC#N [Cimetidine]
serum concentration of estradiol increased [1]: approximately 20%
urinary excretion of 2-hydroxyestrone decreased ([2]; 800 mg per dose twice daily oral for two weeks, nine normal male volunteers, P<0.0002): approximately 25%
Urinary Excretion of Total estrogens ([2]; After Cimetidine 800 mg orally twice a day for 14 days, sum of estrone, estradiol, estriol, 16α-hydroxyestrone, 2-hydroxyestrone, n=9, before 10.7 ± 1.1, P 0.02): 9.9 ± 0.9 nmol/nmol of creatinine
Urinary Excretion of 16α-Hydroxyestrone ([2]; After Cimetidine 800 mg orally twice a day for 14 days, timed overnight urine, mean ± SEM, n=9, before 1.08 ± 0.11, NS): 1.05 ± 0.08 nmol/nmol of creatinine
Urinary Excretion of Estradiol ([2]; After Cimetidine 800 mg orally twice a day for 14 days, timed overnight urine, mean ± SEM, n=9, before 1.28 ± 0.15, NS): 1.25 ± 0.10 nmol/nmol of creatinine
Urinary Excretion of 2-Hydroxyestrone ([2]; After Cimetidine 800 mg orally twice a day for 14 days, timed overnight urine, mean ± SEM, n=9, before 1.71 ± 0.20, P 0.0002): 1.27 ± 0.19 nmol/nmol of creatinine
Urinary Excretion of Estrone ([2]; After Cimetidine 800 mg orally twice a day for 14 days, timed overnight urine, mean ± SEM, n=9, before 3.80 ± 0.34, P 0.03): 3.32 ± 0.26 nmol/nmol of creatinine
ratio of 2-hydroxyestrone to estriol reduced ([2]; after Cimetidine treatment): approximately 40%
2-Hydroxyestrone/estriol ([2]; urinary ratio After Cimetidine 800 mg orally twice a day for 14 days, mean ± SEM, n=9, before 0.74 ± 0.18, P 0.015): 0.47 ± 0.10
16α-hydroxylation of estradiol [3]: unaffected

C[C@]12CC[C@@H]3c4ccc(O)cc4CC[C@H]3[C@@H]1C[C@@H](O)[C@@H]2O [E3, estriol]
Cross-reactivities of the 2OHE1 antiserum (2OHE1 antiserum): 0.01%

N[C@@H](Cc1cc(I)c(Oc2cc(I)c(O)c(I)c2)c(I)c1)C(=O)O [Thyroxine, thyroxine]
Urinary 16αOHE1 ([4]; Post: following two weeks of thyroxine (4.3 mcg/kg/d), mean ± SEM, Pre 2.07 ± 0.24, NS): 2.24 ± 0.17 µg creatinine
Urinary E2 ([4]; Post: following two weeks of thyroxine (4.3 mcg/kg/d), mean ± SEM, Pre 2.78 ± 0.23, NS): 3.03 ± 0.27 µg creatinine
Urinary 2OHE1 ([4]; Post: following two weeks of thyroxine (4.3 mcg/kg/d), mean ± SEM, Pre 2.88 ± 0.32, P 0.01): 5.30 ± 0.85 µg creatinine
Urinary E3 ([4]; Post: following two weeks of thyroxine (4.3 mcg/kg/d), mean ± SEM, Pre 5.84 ± 0.88, NS): 5.37 ± 0.78 µg creatinine
Urinary E1 ([4]; Post: following two weeks of thyroxine (4.3 mcg/kg/d), mean ± SEM, Pre 7.36 ± 0.39, NS): 7.30 ± 0.74 µg creatinine
Urinary Total estrogens ([4]; Post: following two weeks of thyroxine (4.3 mcg/kg/d), mean ± SEM, Pre 20.93 ± 1.58, NS): 23.24 ± 2.41. µg creatinine
index [2OHE1]/[E3] change after thyroxine administration [4, 7]: nearly doubled
urinary 2-hydroxyestrone after thyroxine administration [4, 7]: significantly greater
[2OHE1]/[E3] ([4]; urinary ratio, Post: following two weeks of thyroxine (4.3 mcg/kg/d), Pre 0.56 ± 0.09, P 0.01): 1.05 ± 0.14

COc1cc2c(cc1O)CC[C@@H]1[C@@H]2CC[C@]2(C)C(=O)CC[C@@H]12 [2MeOE1, 2-methoxyestrone]
Cross-reactivities of the 2OHE1 antiserum (2OHE1 antiserum): 0.11%

OCc1c[nH]c2ccccc12 [I3C, indole-3-carbinol]
[2OHE1]/[E3] ([5]; Men Taking I3C (N=7), Post, Pre 1.06 ± 0.11, P <0.02): 2.04 ± 0.35
[E3] ([5]; Men Taking I3C (N=7), Post, Pre 6.4 ± 1.8, P <0.006): 4.2 ± 1.3
[2OHE1] ([5]; Men Taking I3C (N=7), Post, Pre 6.6 ± 2.3, NS): 8.2 ± 3.5
[E1] ([5]; Men Taking I3C (N=7), Post, Pre 8.4 ± 1.8, NS): 8.9 ± 2.3
[E3]/[E1] ([5]; Women (N=5), Post, Pre 1.04 ± 0.20, NS): 0.74 ± 0.11
[2OHE1]/[E1] ([5]; Women (N=5), Post, Pre 1.15 ± 0.24, P <0.05): 1.53 ± 0.20
[2OHE1]/[E3] ([5]; Women (N=5), Post, Pre 1.27 ± 0.30, P <0.005): 2.35 ± 0.50
induction of estradiol 2-hydroxylation ([5]; conclusion from Tables 6A-C): potent inducers
extent of estradiol 2-hydroxylation [6]: significantly increased
